{"source": "PubChem BioAssay AID1508591", "data": [{"conditions": "rat; liver microsomes; pH 7.4; 15.0 min; 1.0 µM", "units": {"half-life": "min"}, "values": [{"smiles": "CC1(COc2ccc3c(c2)ncn3-c2ccc3cccc(N4CCC(N)CC4)c3n2)COC1", "half-life": "> 30"}, {"smiles": "CC(=O)C1CCN(c2ncc(-c3cccc(N(C)C)c3)s2)CC1", "half-life": 2.51}, {"smiles": "CC1=C(C(=O)Nc2ccccc2)C(c2ccccc2Cl)N=C(Nc2nc3ccccc3o2)N1", "note": "(configuration not stated)", "half-life": 24}, {"smiles": "Cc1ccc(-c2cc(C(=O)Nc3ccc(S(N)(=O)=O)cc3)c3ccccc3n2)cc1C", "half-life": "> 30"}, {"smiles": "C=C1c2cccc(O)c2C(O)=C2C(=O)[C@]3(O)C(O)=C(C(N)=O)C(=O)[C@@H](N(C)C)[C@@H]3[C@@H](O)[C@H]12", "half-life": "> 30"}, {"smiles": "COc1ccc(CCN2CCC(Nc3nc4ccccc4n3Cc3ccc(F)cc3)CC2)cc1", "half-life": 4.18}, {"smiles": "COC(=O)c1ccc(Oc2nc3c(c(=O)n(C)c(=O)n3C)n2CCC(C)C)cc1", "half-life": 2.7}, {"smiles": "Cc1ccccc1S(=O)(=O)N1CCCC(CCC(=O)NCCN(C)C2CCCCC2)C1", "note": "(configuration not stated)", "half-life": 2.16}, {"smiles": "CCOC(=O)c1c[nH]c2c3c(ccc2c1=O)CCCC3", "half-life": 20.4}, {"smiles": "CN(Cc1cccs1)c1ncnc2ccc(-c3ccc4c(c3)OCO4)cc12", "half-life": 1.44}, {"smiles": "O=S(=O)(Nc1cnc2ccccc2c1)c1ccc(NCc2ccc(Br)cc2O)cc1", "half-life": 18}, {"smiles": "COc1cc2c(Nc3ccc(Br)cc3F)ncnc2cc1OCC1CCN(C)CC1", "half-life": "> 30"}, {"smiles": "COc1ccc(C2=Nn3c(nnc3-c3ccncc3)SC2)cc1", "half-life": 1.9}, {"smiles": "O=C(NCCCn1ccnc1)c1ccc(-c2ncc3cnc(-c4cccc(F)c4)cn23)cc1", "half-life": 22.5}, {"smiles": "O=C1CCCC2=C1C1(CCS(=O)(=O)C1)N=C(Nc1nc3ccccc3o1)N2", "note": "(configuration not stated)", "half-life": 17}, {"smiles": "CCCc1cc(=O)oc2c3c(c4c(c12)OC(C)(C)C=C4)OC(C)C(C)C3O", "note": "(configuration not stated)", "half-life": 13.2}, {"smiles": "NC(=O)COc1ccc(C2CC(=O)Nc3n[nH]c(Nc4ccccc4)c32)cc1", "note": "(configuration not stated)", "half-life": "> 30"}, {"smiles": "COc1ccc(CCNc2ncnc3onc(C)c23)c(OC)c1", "half-life": 2.23}, {"smiles": "O=C(NC1CCCc2c1cnn2-c1ccc(O)cc1)c1ccccn1", "note": "(configuration not stated)", "half-life": "> 30"}, {"smiles": "COc1ccccc1N1CCN(CCN(C(=O)c2ccc(I)cc2)c2ccccn2)CC1", "half-life": 1.49}, {"smiles": "COC(=O)[C@H](Cc1ccc(O[S+](=O)([O-])c2cccc3cnccc23)cc1)N[S+](=O)([O-])c1ccc2cnccc2c1", "half-life": 1}, {"smiles": "Cc1nc2ccc(Nc3nc(-c4ccncc4)nc4ccccc34)cc2s1", "half-life": 10}, {"smiles": "CC(C)Oc1ccc(CCNC(=O)c2cc3sccc3n2Cc2ccccc2)cc1OC(C)C", "half-life": 2.7}, {"smiles": "CCOc1ccc(CCNC(=O)c2ccc(Oc3ccccc3)cc2)cc1OCC", "half-life": 1.9}, {"smiles": "COc1cc(Cl)c(C)cc1Nc1c2c(nc3ccccc13)CCC2", "half-life": 1.75}, {"smiles": "O=C(Nc1nc(-c2ccccc2)cs1)c1ccccc1[N+](=O)[O-]", "half-life": 17}, {"smiles": "CCn1cc(C(=O)N2CCN(c3cccc(Cl)c3)CC2)c2cc(OC)c(OC)cc2c1=O", "half-life": 7.12}, {"smiles": "COc1ccccc1-c1nc(NCc2cnc(C)cn2)c2ccccc2n1", "half-life": 10}, {"smiles": "CC1=C(C(=O)Nc2nncs2)C(c2[nH]ncc2Cl)N=C(Nc2nc3ccccc3o2)N1", "note": "(configuration not stated)", "half-life": "> 30"}, {"smiles": "NC(=O)C(=O)N/N=C/c1ccc([N+](=O)[O-])o1", "half-life": "> 30"}, {"smiles": "CS(=O)(=O)c1cccc(-c2csc(N3CCC(C(N)=O)CC3)n2)c1", "half-life": "> 30"}, {"smiles": "COc1ccc(NC(=O)CCCc2nnc3n(CCC(C)C)c(=O)c4sccc4n23)cc1Cl", "half-life": 2.96}, {"smiles": "Cc1ccnc(NC(=O)C2CC(=O)N(c3n[nH]c4cc(Br)ccc34)C2)c1", "note": "(configuration not stated)", "half-life": "> 30"}, {"smiles": "Cc1ccc(S(=O)(=O)Nc2ccc(F)cc2C(=O)Nc2nc(-c3ccccc3)cs2)cc1", "half-life": 3}, {"smiles": "NC(=O)c1cccc(-c2cc(Nc3ccc(OC(F)(F)F)cc3)ncn2)c1", "half-life": "> 30"}, {"smiles": "O=C(Nc1ccccc1C(=O)Nc1cccc(C(F)(F)F)c1)c1ccccc1", "half-life": "> 30"}, {"smiles": "NS(=O)(=O)c1ccc(Cc2c(-c3cccc(-c4ccccc4)c3)nn(-c3nc(C(=O)O)cs3)c2CC2CC2)cc1", "half-life": "> 30"}, {"smiles": "COc1c(O)cc2c(c1OC)-c1ccc(SC)c(=O)cc1C(NC(C)=O)CC2", "note": "(configuration not stated)", "half-life": "> 30"}, {"smiles": "NC(=O)C1CCN(c2nc(-c3ccc([N+](=O)[O-])cc3)cs2)CC1", "half-life": 5.53}, {"smiles": "Cc1noc(C)c1CN1CCNc2cc(Nc3ccccc3)ncc2C1", "half-life": 5.25}, {"smiles": "Cc1cccc(-n2cnc3cc(C(=O)N4CCCC(C(F)(F)F)C4)ccc32)c1", "note": "(configuration not stated)", "half-life": 1.3}, {"smiles": "CCn1c(C)c(C(C)=O)c(C)c1C(=O)Nc1cccc([S+](=O)([O-])N(C)C)c1", "half-life": 6.5}, {"smiles": "FC(F)(F)c1ccc(N2CCN(C(=S)Nc3ccccn3)CC2)cc1", "half-life": "> 30"}, {"smiles": "CC[C@@]1(O)C(=O)OCc2c1cc1n(c2=O)Cc2cc3ccccc3nc2-1", "half-life": "> 30"}, {"smiles": "NC(=O)C1CCN(c2nc(-c3ccc(Oc4ccccc4)cc3)cs2)CC1", "half-life": 18.5}, {"smiles": "COc1ccc(NC(=O)c2cccnc2)cc1S(=O)(=O)Nc1ccc(Br)cc1", "half-life": 21}, {"smiles": "Cc1n[nH]c(C)c1CCc1nc2c3ccccc3nc(SCC(=O)Nc3ccc(F)cc3)n2n1", "half-life": 2.67}, {"smiles": "Cc1ccc(CCNC(=O)C2CCCN(C(=O)c3cc4sccc4n3C)C2)cc1", "note": "(configuration not stated)", "half-life": 1.7}, {"smiles": "COc1ccc(-c2csc(N3CCC(C(N)=O)CC3)n2)cc1OC", "half-life": "> 30"}, {"smiles": "O=C1CCc2cc(S(=O)(=O)Nc3ccc(F)c(Cl)c3)ccc2N1", "half-life": 20.5}, {"smiles": "O=C(c1nc(-c2ccc(Cl)cc2Cl)c2cnccn12)N1CCOCC1", "half-life": 23.6}, {"smiles": "O=C(c1cnccn1)N1CCC2(CCCN(C(c3ccccc3)c3ccccc3)C2)CC1", "half-life": 1.8}]}]}
